Assay results taken from US9409880B2, “Modulators of TLR3/dsRNA complex and uses thereof” (The Regents of the University of Colorado, a body corporate, priority 2011, dated 2016).

Key:
TLR3 [1] = molecular target: T1, TLR3 (Mus musculus, UniProt Q99MB1); assay: In vitro TLR3 inhibition assay: Poly IC-induced NO production in RAW 264.7 cells; assay type: cell-based; settings: whole cell inhibitory activity
T1 construct: endogenous in cells; host or cells: RAW 264.7
T1 sequence (Q99MB1 26-905): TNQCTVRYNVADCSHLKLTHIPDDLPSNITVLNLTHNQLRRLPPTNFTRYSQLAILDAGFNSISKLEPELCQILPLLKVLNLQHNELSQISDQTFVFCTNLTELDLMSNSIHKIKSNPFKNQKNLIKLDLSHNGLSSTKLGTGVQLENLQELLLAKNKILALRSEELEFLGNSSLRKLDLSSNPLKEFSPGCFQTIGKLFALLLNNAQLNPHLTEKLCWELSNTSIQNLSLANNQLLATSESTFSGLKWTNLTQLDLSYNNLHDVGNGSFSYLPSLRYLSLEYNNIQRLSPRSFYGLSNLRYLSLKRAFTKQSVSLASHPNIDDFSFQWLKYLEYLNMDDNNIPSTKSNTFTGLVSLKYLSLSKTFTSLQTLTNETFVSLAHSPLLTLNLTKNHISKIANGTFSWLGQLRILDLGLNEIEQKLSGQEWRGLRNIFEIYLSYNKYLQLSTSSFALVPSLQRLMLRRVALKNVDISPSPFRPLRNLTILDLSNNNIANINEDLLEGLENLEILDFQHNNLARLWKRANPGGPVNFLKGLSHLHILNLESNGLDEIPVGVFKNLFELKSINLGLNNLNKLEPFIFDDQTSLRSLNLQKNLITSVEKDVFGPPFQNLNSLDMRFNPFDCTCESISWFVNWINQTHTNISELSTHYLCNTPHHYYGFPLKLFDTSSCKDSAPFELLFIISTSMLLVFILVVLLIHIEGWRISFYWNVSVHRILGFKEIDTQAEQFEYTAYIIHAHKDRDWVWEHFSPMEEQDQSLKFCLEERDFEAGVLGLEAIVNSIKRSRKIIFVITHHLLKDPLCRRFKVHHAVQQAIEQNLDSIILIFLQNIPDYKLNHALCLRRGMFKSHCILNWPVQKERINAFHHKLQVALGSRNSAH
Source text: The initial hits (Figure A) were first evaluated using the present inventors' previously established high-throughput cell assay of TLR3 activation. See, for example, ACS Med. Chem. Lett. 2010, 1, 194 and Bioorg. Med. Chem. Lett., 2010, 20, 5411. Poly IC (Polyriboinosinic:polyribocytidylic acid) has been reported to selectively activate TLR3 signaling, resulting in the activation of nitric oxide synthase and the production nitric oxide (NO) in RAW 264.7 macrophage cells. The NO level was monitored as an indicator of Poly IC-induced TLR3 activation to evaluate the drug's inhibitory activity.
RAW 264.7 (Mouse leukaemic monocyte macrophage cell line) cells were grown in RPMI 1640 medium, supplemented with 10% FBS, penicillin (100 U/mL) and streptomycin ([…]). RAW cells were then planted in 96-well plates at 100,000 cells per well and grown for 24 h in the media descried previously at 37° C. in a 5% CO2 humidified incubator. After 24 h, non-adherent cells and media were removed and replaced with fresh RPMI 1640 medium (only RPMI). The adherent macrophages were treated with high molecular weight polyinosine-polycytidylic acid (Poly IC) (10 μg/mL) (Invivogen), an agonist of TLR3, and then added different concentrates of potential inhibitor. Two rows were only treated with Poly IC as an control. Plates were then incubated for an additional 24 h. Following incubation 100 μL of media was removed and added to flat black 96-well microfluor plates (Thermo Scientific, MA, USA). To each well, 10 μL of 2,3-diaminonaphthalene (0.05 mg/mL in 0.62 M aqueous HCl solution) was added and incubated for 15 min in the dark. The reaction was quenched by addition of 5 μL of a 3 M aqueous NaOH solution and the plate was read on Beckman Coulter DTX880 reader (Beckman Coulter, Calif., USA) with excitation at 365 nm and emission at 450 nm. The nitrite (a stable metabolite of nitric oxide) concentration was determined from a nitrite standard curve. The inhibition rate (%) of NO release was determined using the following formula: Inhibition (%)=[Poly IC(OD450)−Compounds (OD450)]/[Poly IC(OD450)−Control (OD450)]×100. The IC50 values for both inhibition and cytotoxicity were determined graphically using software Origin v7.5.

TLR3 [2] = molecular target: T2, TLR3 (Homo sapiens, UniProt O15455); assay: Fluorescence anisotropy assay, competition with Rhodamine labeled Poly IC; assay type: binding
T2 construct: purchased R &D
T2 sequence (O15455 24-904): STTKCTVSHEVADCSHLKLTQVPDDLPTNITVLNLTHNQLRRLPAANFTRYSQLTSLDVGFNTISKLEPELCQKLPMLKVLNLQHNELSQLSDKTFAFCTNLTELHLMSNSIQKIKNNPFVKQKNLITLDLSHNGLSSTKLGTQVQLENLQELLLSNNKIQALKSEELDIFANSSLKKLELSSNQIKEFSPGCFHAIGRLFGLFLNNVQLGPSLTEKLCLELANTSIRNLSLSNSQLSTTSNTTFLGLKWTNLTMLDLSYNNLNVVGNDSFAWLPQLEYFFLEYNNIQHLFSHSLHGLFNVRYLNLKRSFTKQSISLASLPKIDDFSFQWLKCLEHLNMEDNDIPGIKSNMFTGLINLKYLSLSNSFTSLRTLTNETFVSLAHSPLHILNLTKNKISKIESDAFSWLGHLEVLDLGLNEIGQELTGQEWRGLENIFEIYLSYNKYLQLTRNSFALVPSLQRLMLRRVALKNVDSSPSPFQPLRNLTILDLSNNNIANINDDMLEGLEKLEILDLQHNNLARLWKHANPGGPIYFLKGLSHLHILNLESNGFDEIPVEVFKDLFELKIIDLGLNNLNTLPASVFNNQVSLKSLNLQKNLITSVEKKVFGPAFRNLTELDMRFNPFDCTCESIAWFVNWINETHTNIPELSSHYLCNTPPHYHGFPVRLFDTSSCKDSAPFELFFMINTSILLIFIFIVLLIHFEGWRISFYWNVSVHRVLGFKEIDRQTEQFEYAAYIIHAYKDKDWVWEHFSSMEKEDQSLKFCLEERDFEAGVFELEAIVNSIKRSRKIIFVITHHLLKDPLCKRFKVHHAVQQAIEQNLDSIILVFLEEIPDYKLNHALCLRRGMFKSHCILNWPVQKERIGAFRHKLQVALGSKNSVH
Description: The anisotropy of Rhodamine labeled Poly IC increased from approximately 0.116 to 0.171 upon addition of TLR3 (excitation=546 nm; emission=576 nm).
In 500 μL Tris buffer (pH=7.2) add 5 μL (1 μg/mL) Rhodamine labeled Poly IC (Invivogen), test the anisotropy at excitation of 546 nm and emission of 576 nm (Horiba Fluorolog 3). An addition 3 μL (20 μM) of TLR3 (R &D) was added in the buffer, then test the anisotropy again. Following, 4a was added in the buffer from 0 to 68 μM, and the fluorescence anisotropy was tested when the concentration was changed.

[3] = Poly IC-induced NO, RAW 264.7, average ± SD, at least three independent tests
[4] = second part of Table 1 (R5/R6 series)

Compound	IC50 (TLR3 [1]; [3]) [µM]	IC50 (TLR3 [1]; [4]) [µM]	TLR3 binding competition with dsRNA (TLR3 [2])
O=C(O)[C@@H](Cc1ccccc1)NS(=O)(=O)c1cccc(F)c1 [Compound 15a, (R)-2-(3-fluorophenylsulfonamido)-3-phenylpropanoic acid]		> 100	
O=C(O)[C@H](Cc1ccc(O)cc1)NS(=O)(=O)c1ccc(F)cc1 [Compound 19b, (S)-2-(4-fluorophenylsulfonamido)-3-(4-hydroxyphenyl)propanoic acid]		> 100	
O=C(N[C@H](Cc1ccccc1)C(=O)O)c1cc2ccccc2s1 [Compound 1a, (R)-2-(benzo[b]thiophene-2-carboxamido)-3-phenylpropanoic acid]	> 155		does not show any significant binding to TLR3
O=C(N[C@H](Cc1ccccc1)C(=O)O)c1sc2cc(F)c(F)cc2c1Cl [Compound 8a, (R)-2-(3-chloro-5,6-difluorobenzo[b]thiophene-2-carboxamido)-3-phenylpropanoic acid]	70.7 ± 2.1		

More lines, main results first:

IC50 (TLR3 [1]; [3]) [µM]	IC50 (TLR3 [1]; [4]) [µM]	Compound	TLR3 binding competition with dsRNA (TLR3 [2])
5.6 ± 0.32		O=C(N[C@H](Cc1ccccc1)C(=O)O)c1sc2cc(Cl)ccc2c1Cl [Compound 3a, (R)-2-(3,6-dichlorobenzo[b]thiophene-2-carboxamido)-3-phenylpropanoic acid]	
56.4 ± 5.2		O=C(N[C@H](Cc1ccc(O)cc1)C(=O)O)c1sc2cc(F)ccc2c1Cl [Compound 7a, (R)-2-(3-chloro-6-fluorobenzo[b]thiophene-2-carboxamido)-3-(4-hydroxyphenyl)propanoic acid]	
47.3 ± 4.1		O=C(N[C@H](Cc1ccccc1)C(=O)O)c1sc2ccc(F)cc2c1Cl [Compound 12a, (R)-2-(3-chloro-5-fluorobenzo[b]thiophene-2-carboxamido)-3-phenylpropanoic acid]	
